“Also recorded” adds a separate entry of the source.
Test system: late gestating sows
Assay: Calcium, phosphorus and energy balance / apparent total tract digestibility (ATTD) study in late gestating sows fed diets with supplemental 1-α-OH-D3
Type: in vivo, pig
Conditions: for ATTD of Ca / ATTD of Dry Matter / ATTD of P / ATTD of gross energy / Absorbed Ca / Absorbed P / Fecal Ca output / Fecal P output / Fecal excretion / Urine Ca output / Urine P output: 12.5 mg/kg diet; for fecal P output, in words / urine P output, in words: vs no supplement
Source text: Thirty six gestating sows were allotted to three blocks of twelve sows using a randomized complete block design. Four diets were fed to the twelve sows in each block. Thus, there were a total of nine replicate sows per diet. Sows were fed experimental diets from day 91 to 105 of gestation and were housed individually in metabolism crates during this period. Metabolism crates were equipped with a feeder, a nipple drinker, and fully slatted T-bar floors. A screen floor and a urine pan were installed below the T-bar floors to allow for collection of feces and urine, respectively. The initial five days of each period in the metabolism crates were considered the adaptation period to the diets followed by four days of fecal collection using the marker to marker procedure (Adeola, O. 2001. Digestion and balance techniques in pigs. In: A. J. Lewis and L. L. Southern, editors, Swine Nutrition. CRC Press, Washington, D.C., USA. p. 903-916.). Fecal collection was initiated when the first marker (i.e., indigo carmine) appeared in the feces and ceased when the second marker (i.e., chromic oxide) appeared (Id.). Urine was collected in buckets placed under the urine pans with 50 mL of 3N HCl from day six in the morning until day ten in the morning. Buckets were emptied daily, the weight of the collected urine was recorded, and 10% of the collected urine was stored at −20° C. until subsampling.
Diets were formulated using a 2×2 factorial arrangement with two levels of calcium and phosphorus (i.e., 100% and 75% of the requirement; NRC, 2012) with a constant calcium to phosphorus ratio (See Table 1) without or with supplemental 1-α-OH-D3 (Alpha D3, Premex Inc., NC). The high level of calcium and phosphorus was 100% requirement for late gestation sows. The low level of calcium phosphorus was 75% of requirement for late gestation sows (NRC. 2012. Nutrient requirements of swine. 11th rev. ed. Natl. Acad. Press, Washington, D.C., USA). The corn-1-α-OH-D3 premix provided 12.5 mg Alpha D3 per kg of complete diet; 1,000 g of 1-α-OH-D3 premix was prepared by mixing 417 mg Alpha D3 and 999.583 g ground corn.
The vitamin-micromineral premix provided the following quantities of vitamins and micro minerals per kilogram of complete diet: vitamin A as retinyl acetate, 10,622 IU; vitamin D3 as cholecalciferol, 1,660 IU; vitamin E as […], 66 IU; vitamin K as menadione nicotinamide bisulfate, 1.40 mg; thiamin as thiamine mononitrate, 1.08 mg; riboflavin, 6.49 mg; pyridoxine as pyridoxine hydrochloride, 0.98 mg; vitamin B12, 0.03 mg; D-pantothenic acid as D-calcium pantothenate, 23.2 mg; niacin, 43.4 mg; folic acid, 1.56 mg; biotin, 0.44 mg; Cu, 20 mg as copper chloride; Fe, 123 mg as iron sulfate; I, 1.24 mg as ethylenediamine dihydriodide; Mn, 59.4 mg as manganese hydroxychloride; Se, 0.27 mg as sodium selenite and selenium yeast; and Zn, 124.7 mg as zinc hydroxychloride.
All vitamins and minerals except calcium and phosphorus were included in all diets to meet or exceed nutrient requirements (NRC, 2012). Daily feed allotments were provided in a meal that was fed at 7 AM throughout the experiment. The daily feed allowance was 1.5 times the maintenance energy requirement for gestating sows based on the initial body weight of sows (i.e., 100 kcal ME/kg BW0.75; NRC. 2012. Nutrient requirements of swine. 11th rev. ed. Natl. Acad. Press, Washington, D.C., USA). Water was available at all times.
At the conclusion of the testing, urine samples were thawed and mixed within animal and collection period and subsamples were collected. Fecal samples were stored at −20° C. as soon as collected, and at the conclusion of the experiment, samples were dried at 65° C. in a forced air oven and finely ground through a 1-mm screen before analysis using a Wiley mill (Model 4; Thomas Scientific, Swedesboro, N.J.). […]

[1] = high level of dietary calcium and phosphorus, P<0.05
[2] = low level of dietary calcium and phosphorus
[3] = supplemented vs no supplemental 1-α-OH-D3, main effect, P<0.01
[4] = supplemented vs no supplemental 1-α-OH-D3, regardless of dietary Ca and P levels, P<0.05

SMILES: C=C1/C(=C\C=C2/CCC[C@]3(C)[C@@H]([C@H](C)CCCC(C)C)CC[C@@H]23)C[C@@H](O)C[C@@H]1O [1-α-OH-D3, 1-alpha-hydroxycholecalciferol]
- ATTD of Ca (High Ca and P levels): 30.25%
- ATTD of Dry Matter (High Ca and P levels): 87.72%
- ATTD of P (High Ca and P levels): 34.7%
- ATTD of gross energy (High Ca and P levels): 87.3%
- Absorbed Ca (High Ca and P levels): 6.63 grams/day
- Absorbed P (High Ca and P levels): 5.19 grams/day
- Fecal Ca output (High Ca and P levels): 15.00 grams/day
- Fecal P output (High Ca and P levels): 9.71 grams/day
- Fecal excretion (High Ca and P levels): 0.32 kg dry matter/d
- Urine Ca output (High Ca and P levels): 0.59 grams/day
- Urine P output (High Ca and P levels): 0.99 grams/day
- ATTD of Ca (Low Ca and P levels): 30.49%
- ATTD of Dry Matter (Low Ca and P levels): 88.31%
- ATTD of P (Low Ca and P levels): 29.63%
- ATTD of gross energy (Low Ca and P levels): 87.5%
- Absorbed Ca (Low Ca and P levels): 4.66 grams/day
- Absorbed P (Low Ca and P levels): 3.16 grams/day
- Fecal Ca output (Low Ca and P levels): 10.89 grams/day
- Fecal P output (Low Ca and P levels): 7.67 grams/day
- Fecal excretion (Low Ca and P levels): 0.30 kg dry matter/d
- Urine Ca output (Low Ca and P levels): 0.99 grams/day
- Urine P output (Low Ca and P levels): 0.12 grams/day
- fecal P output, in words [1]: decreased
- urine P output, in words [1]: decreased
- fecal P output, in words [2]: no difference
- urine P output, in words [2]: no difference
- ATTD of dry matter, in words (supplemented vs no supplemental 1-α-OH-D3, main effect): greater
- fecal excretion, in words (supplemented vs no supplemental 1-α-OH-D3, main effect over both Ca and P levels, P<0.05): less
- ATTD of calcium, in words [3]: greater; also recorded: increased
- ATTD of gross energy, in words [3]: increases
- Fecal calcium output, in words [3]: less
- absorbed calcium, in words [3]: greater
- calcium retention, in words [3]: greater; also recorded: increased
- concentration of digestible energy in diets, in words [3]: increases
- urine calcium outputs, in words [3]: increased
- ATTD of phosphorus, in words [4]: greater; also recorded: increased
- absorbed phosphorus, in words [4]: greater
- phosphorus retention, in words [4]: greater; also recorded: increased
